According to patent US20230124862A1, “BISMUTH THIOL COMPOUNDS AND COMPOSITIONS AND METHODS OF TREATING MICROBIAL CO-INFECTIONS” (Microbion Corporation, priority 2020, published 2023):
In brackets after ≈: the same amount, converted by molar mass. Several values for one entry are separate records, joined by “and”; a condition that tells them apart may be missing. Equal entries are not always repeated. Where two headings read alike, the source gives them in different places. Starred links: 1 amine or outer side, 2 acyl side, 3 side chain; linkers in the order of their positions; H or OH if unused. Positions of bridges follow the written chain, without caps; N, C: chain ends. Non-standard residues stand in square brackets, D forms with d. Residues, ends and D or L forms follow the SMILES beside them. *: point of attachment. hTyr(3S-OH,4S-OH,3'-OSO3H) = N[C@H](C(=O)O)[C@H](O)[C@@H](O)c1ccc(O)c(OS(=O)(=O)O)c1; Orn(4R-OH,5R-OH) = O=C([C@H](C[C@@H](O)[C@@H](O)N[*:3])N[*:1])[*:2]; Pro(3S-OH,4S-Me) = C[C@H]1CN[C@H](C(=O)O)[C@H]1O; X1 = CCCCCOc1ccc(-c2cc(-c3ccc(C(=O)*)cc3)no2)cc1; Gln(3R-OH) = NC(=O)C[C@@H](O)[C@H](N)C(=O)O; Hyp = O=C(O)[C@@H]1C[C@@H](O)CN1

Tests used:
S. aureus ATCC 29213 [1] = assay: MIC control strain; settings: QC organism, Example 13
Candida krusei [2] = settings: C. krusei ATCC 6258, CLSI established QC range, cited from earlier work
E. coli ATCC 25922 = assay: MIC control strain; settings: QC organism, Example 13
Aspergillus spp. = assay: Antifungal broth microdilution (Example 13); type: cell-based, A. niger, A. terreus, A. fumigatus, A. flavus
[3] = system: C. parapsilosis ATCC 22019; assay: Antifungal broth microdilution (Example 13), QC organism; type: cell-based, Candida parapsilosis; settings: comparators, single value
Candida krusei [4] = assay: Antifungal broth microdilution (Example 13); type: cell-based
[5] = system: C. parapsilosis ATCC 22019; settings: cited from earlier work
[6] = system: P. aeruginosa and A. baumannii; assay: Broth microdilution MIC (Example 11); type: cell-based, Pseudomonas aeruginosa, Acinetobacter baumannii
Enterobacteriaceae [7] = assay: Broth microdilution MIC (Example 11); type: cell-based, E. coli, K. pneumoniae, Enterobacter cloacae
[8] = system: P. aeruginosa and A. baumannii; settings: P. aeruginosa MMX 103 (ATCC 27853); CLSI QC ranges shown in parenthesis; cited from earlier work
S. aureus [9] = assay: Broth microdilution MIC (Example 11); type: cell-based, Staphylococcus aureus
S. aureus [10] = settings: S. aureus MMX 101 (ATCC 29213); cited from earlier work
Enterococcus spp. = assay: Broth microdilution MIC (Example 11); type: cell-based, E. faecalis, E. faecium; settings: Lev^R Cip^R Ery^R
Enterobacteriaceae [11] = settings: E. coli MMX 102 (ATCC 25922); CLSI QC ranges shown in parenthesis; cited from earlier work
S. aureus ATCC 29213 [12] = settings: control strain ATCC 29213; cited from earlier work

In the case of CC[C@H](C)C[C@H](C)CCCCCCCCC(=O)N[C@H]1C[C@@H](O)[C@@H](NCCN)NC(=O)[C@@H]2[C@@H](O)CCN2C(=O)[C@H]([C@H](O)CCN)NC(=O)[C@H]([C@H](O)[C@@H](O)c2ccc(O)cc2)NC(=O)[C@@H]2C[C@@H](O)CN2C(=O)[C@H]([C@@H](C)O)NC1=O [Caspofungin], the “MIC 24 hr” value (S. aureus ATCC 29213 [1]) is listed as over 64, the “QC Range 24 hr” value (Candida krusei [2]) is listed as 0.12-1 and the “QC Range 48 hr” value (Candida krusei [2]) is listed as 0.25-2. For the same molecule, the “MIC 24 hr” value (E. coli ATCC 25922) was over 64, the “MIC 24 hr (MEC)” value (Aspergillus spp.; A. flavus ATCC 204304, 24 hr, MEC) was 0.12 (MEC) and the “MIC 48 hr (MEC)” value (Aspergillus spp.; A. flavus ATCC 204304, 48 hr, MEC) was 0.06 (MEC). The “MIC 24 hr (MEC)” value (Aspergillus spp.; A. fumigatus ATCC MYA-3626, 24 hr, MEC) was 0.06 (MEC), the “MIC 48 hr (MEC)” value (Aspergillus spp.; A. fumigatus ATCC MYA-3626, 48 hr, MEC) was 0.06 (MEC) and the MIC 24 hr [3] was 0.25 µg/mL (≈ 0.229 µM). The MIC 48 hr [3] was 0.5 µg/mL (≈ 0.457 µM), the MIC 24 hr (Candida krusei [4]; C. krusei ATCC 6258, 24 hr, comparators, single value) was 0.25 µg/mL (≈ 0.229 µM) and the MIC 48 hr (Candida krusei [4]; C. krusei ATCC 6258, 48 hr, comparators, single value) was 0.25 µg/mL (≈ 0.229 µM). The “QC Range 24 hr” value ([5]; C. parapsilosis ATCC 22019, CLSI established QC range, 24 hr) was 0.25-1 and the “QC Range 48 hr” value ([5]; C. parapsilosis ATCC 22019, CLSI established QC range, 48 hr) was 0.5-4.

Gentamicin gave an MIC ([6]; A. baumannii MMX 2592, MDR, Lev^R Cip^R MEM^R CAZ^R Gm^R) of over 64 µg/mL, an MIC ([6]; A. baumannii MMX 2593, MDR, Lev^R Cip^R MEM^R CAZ^R Gm^R) of over 64 µg/mL and an MIC ([6]; A. baumannii MMX 3372, MDR, Cip^R MEM^1 CAZ^1) of 0.5 µg/mL. The MIC ([6]; A. baumannii MMX 3373, Sensitive) was 0.12 µg/mL, the MIC ([6]; A. baumannii MMX 4651 (NCTC 13304), MDR: OXA-27, Lev^R Cip^R MEM^R CAZ^R Gm^1) was 8 µg/mL and the MIC ([6]; P. aeruginosa MMX 103 (ATCC 27853), QC) was 1 µg/mL. For the same molecule, the MIC ([6]; P. aeruginosa MMX 1381, MDR, Lev^R Cip^R MEM^R CAZ^R) was 8 µg/mL, the MIC ([6]; P. aeruginosa MMX 2562, MDR, Lev^R Cip^R MEM^R CAZ^R) was 8 µg/mL and the MIC ([6]; P. aeruginosa MMX 3991, MDR, Lev^R Cip^R MEM^R CAZ^R) was 4 µg/mL. For the same molecule, the MIC ([6]; P. aeruginosa MMX 4654, IMP-7, Lev^R Cip^R MEM^R CAZ^R) was over 64 µg/mL, the MIC ([6]; P. aeruginosa MMX 4697, VIM-2, Lev^R Cip^R MEM^R CAZ^R) was 4 µg/mL and the MIC (Enterobacteriaceae [7]; E. cloacae MMX 5981 (ATCC BAA-2468), NDM-1, Lev^R MEM^R CAZ^R Gm^R) was over 64 µg/mL. It also gave an MIC (Enterobacteriaceae [7]; E. coli MMX 102 (ATCC 25922), QC) of 1 µg/mL, an MIC (Enterobacteriaceae [7]; E. coli MMX 5980 (ATCC BAA-2469), NDM-1, Lev^R MEM^R CAZ^R Gm^R) of over 64 µg/mL and an MIC (Enterobacteriaceae [7]; E. coli MMX 8423, ESBL, Lev^R CAZ^R Gm^R) of 64 µg/mL. The MIC (Enterobacteriaceae [7]; E. coli MMX 8424, ESBL, CAZ^R) was 0.25 µg/mL, the MIC (Enterobacteriaceae [7]; E. coli MMX 8425, ESBL, Lev^R CAZ^R Gm^R) was over 64 µg/mL and the MIC (Enterobacteriaceae [7]; K. pneumoniae MMX 4622, KPC-2, MEM^R CAZ^R) was 0.25 µg/mL. It also gave an MIC (Enterobacteriaceae [7]; K. pneumoniae MMX 4623, KPC-2, MEM^R CAZ^R Gm^R) of 64 µg/mL, an MIC (Enterobacteriaceae [7]; K. pneumoniae MMX 4653, KPC-3, Lev^R MEM^R CAZ^R) of 1 µg/mL and an MIC (Enterobacteriaceae [7]; K. pneumoniae MMX 4683, KPC-2, Lev^R MEM^R CAZ^R) of 1 µg/mL. It also gave an MIC (Enterobacteriaceae [7]; K. pneumoniae MMX 4684, ESBL, MEM^R) of 0.25 µg/mL, an MIC (Enterobacteriaceae [7]; K. pneumoniae MMX 4685, ESBL, Lev^R MEM^R CAZ^R) of 1 µg/mL and an MIC (Enterobacteriaceae [7]; K. pneumoniae MMX 4694, KPC-3, Lev^R MEM^R CAZ^R) of 8 µg/mL. The MIC (Enterobacteriaceae [7]; K. pneumoniae MMX 5979, NDM-1, Lev^R MEM^R CAZ^R Gm^R) was over 64 µg/mL, the “MIC, CLSI QC range” value [8] was “(0.5-2) μg/mL” and the MIC (S. aureus [9]; S. aureus MMX 101 (ATCC 29213), QC, MSSA) was 0.12 µg/mL. For the same molecule, the MIC (S. aureus [9]; S. aureus MMX 5373, MRSA, Lev^R Cip^R CC^R Ery^R Ox^R) was 0.25 µg/mL, the MIC (S. aureus [9]; S. aureus MMX 6311, MRSA, Lev^R Cip^R CC^R Ery^R Ox^R) was 0.25 µg/mL and the MIC (S. aureus [9]; S. aureus MMX 9203, MRSA, Lev^R Cip^R Ery^R Ox^R) was 0.12 µg/mL. The MIC (S. aureus [9]; S. aureus MMX 9204, MRSA, Lev^R Cip^R Ery^R Ox^R) was 0.25 µg/mL, the MIC (S. aureus [9]; S. aureus MMX 9205, MRSA, Lev^R Cip^R CC^R Ery^R Ox^R) was 0.25 µg/mL and the “CLSI QC range of MIC” value (S. aureus [10]) was “(0.12-1) μg/mL”. The MIC (Enterococcus spp.; E. faecalis MMX 8960, VRE) was over 64 µg/mL, the MIC (Enterococcus spp.; E. faecalis MMX 8961, VRE) was 8 µg/mL and the MIC (Enterococcus spp.; E. faecalis MMX 8962, VRE) was over 64 µg/mL. For the same molecule, the MIC (Enterococcus spp.; E. faecium MMX 485, VRE vanA) was over 64 µg/mL, the MIC (Enterococcus spp.; E. faecium MMX 752, VRE vanA) was over 64 µg/mL and the “MIC, CLSI QC range” value (Enterobacteriaceae [11]) was “(0.25-1) μg/mL”.

In the case of CCCCCOc1ccc(-c2cc(-c3ccc(C(=O)N[C@H]4C[C@@H](O)[C@@H](O)NC(=O)[C@@H]5[C@@H](O)[C@@H](C)CN5C(=O)[C@H]([C@H](O)CC(N)=O)NC(=O)[C@H]([C@H](O)[C@@H](O)c5ccc(O)c(OS(=O)(=O)O)c5)NC(=O)[C@@H]5C[C@@H](O)CN5C(=O)[C@H]([C@@H](C)O)NC4=O)cc3)no2)cc1 [Micafungin] (X1-[Orn(4R-OH,5R-OH)]T[Hyp][hTyr(3S-OH,4S-OH,3'-OSO3H)][Gln(3R-OH)][Pro(3S-OH,4S-Me)]; lactam 1-C), the “MIC 24 hr” value (S. aureus ATCC 29213 [1]) is given as over 64, the “QC Range 24 hr” value (Candida krusei [2]) is given as 0.12-0.5 and the “QC Range 48 hr” value (Candida krusei [2]) is given as 0.12-0.5. For the same molecule, the “MIC 24 hr” value (E. coli ATCC 25922) was over 64, the “MIC 24 hr (MEC)” value (Aspergillus spp.) was 0.06 (MEC) and 0.03 (MEC) and the “MIC 48 hr (MEC)” value (Aspergillus spp.) was 0.008 (MEC). The MIC 24 hr [3] was 0.5 µg/mL (≈ 0.394 µM), the MIC 48 hr [3] was 2 µg/mL (≈ 1.57 µM) and the MIC 24 hr (Candida krusei [4]) was 0.5 µg/mL (≈ 0.394 µM). For the same molecule, the MIC 48 hr (Candida krusei [4]) was 0.5 µg/mL (≈ 0.394 µM), the “QC Range 24 hr” value [5] was 0.5-2 and the “QC Range 48 hr” value [5] was 0.5-4.

In the case of CC[C@H]1OC(=O)[C@H](C)[C@@H](O[C@H]2C[C@@](C)(OC)[C@@H](O)[C@H](C)O2)[C@H](C)[C@@H](O[C@@H]2O[C@H](C)C[C@H](N(C)C)[C@H]2O)[C@](C)(OC)C[C@@H](C)C(=O)[C@H](C)[C@@H](O)[C@]1(C)O [Clarithromycin, reference compound], the “Expected MIC: goal (acceptable range)” value (S. aureus ATCC 29213 [12]) is given as 0.25 (0.12-0.5) mcg/mL.
